# Measurements from ChEMBL document CHEMBL4342471, “Discovery of Thieno[2,3-d]pyrimidine-Based Hydroxamic Acid Derivatives as Bromodomain-Containing Protein 4/Histone Deacetylase Dual Inhibitors Induce Autophagic Cell Death in Colorectal Carcinoma Cells” (J Med Chem, 2020).
# Molecular target: T1, Histone deacetylase 7 (Homo sapiens, UniProt Q8WUI4)
# T1 sequence (Q8WUI4 whole entry): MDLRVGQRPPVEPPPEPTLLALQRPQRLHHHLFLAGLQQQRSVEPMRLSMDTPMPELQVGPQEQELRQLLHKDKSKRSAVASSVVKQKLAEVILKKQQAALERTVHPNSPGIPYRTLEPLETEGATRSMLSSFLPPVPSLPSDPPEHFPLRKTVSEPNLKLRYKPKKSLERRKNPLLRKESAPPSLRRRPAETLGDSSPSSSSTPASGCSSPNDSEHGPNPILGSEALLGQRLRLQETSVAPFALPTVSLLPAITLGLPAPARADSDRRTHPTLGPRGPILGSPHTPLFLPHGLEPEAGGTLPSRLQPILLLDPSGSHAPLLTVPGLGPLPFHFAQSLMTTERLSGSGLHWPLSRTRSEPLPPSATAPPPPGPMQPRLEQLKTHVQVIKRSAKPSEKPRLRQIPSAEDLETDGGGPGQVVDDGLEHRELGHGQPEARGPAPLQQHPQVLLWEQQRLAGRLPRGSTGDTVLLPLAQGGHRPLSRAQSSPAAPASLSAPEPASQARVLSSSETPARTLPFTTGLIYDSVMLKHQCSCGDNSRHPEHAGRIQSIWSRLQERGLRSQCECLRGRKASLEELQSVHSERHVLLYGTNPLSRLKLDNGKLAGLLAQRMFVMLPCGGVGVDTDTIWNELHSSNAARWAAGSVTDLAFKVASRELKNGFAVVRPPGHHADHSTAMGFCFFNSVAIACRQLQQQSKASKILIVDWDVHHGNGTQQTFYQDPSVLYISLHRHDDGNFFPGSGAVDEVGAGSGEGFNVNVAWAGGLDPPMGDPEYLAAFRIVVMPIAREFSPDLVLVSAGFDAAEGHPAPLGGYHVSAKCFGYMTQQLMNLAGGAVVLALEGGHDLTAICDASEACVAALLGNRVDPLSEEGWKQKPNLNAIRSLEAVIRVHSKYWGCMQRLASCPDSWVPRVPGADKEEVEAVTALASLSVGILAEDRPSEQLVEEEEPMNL
# Assay: Inhibition of HDAC7 (unknown origin) using biotinylated histone H3 KAc peptide (1 to 21 residues) as substrate by HTRF assay
smiles,measurement,value
Cc1cc(-c2nc3sc4c(c3c(=O)[nH]2)CCN(C)C4)cc(C)c1OCCCCCC(=O)NO,IC50,> 10 µM
